The values below are quoted from earlier work in patent US20090233840A1, “Modified Dynorphin Expression in Animals and Identification of Compounds for Treatment of Obesity and Diabetes” (priority 2004, published 2009).

The conditions of data set [1]: not affected by naloxone or norBNI.
The conditions of data set [2]: intracerebroventricularly.
The conditions of data set [3]: administered ICV.
In data set [4] the test system is cultured cortical cells from Sprague Dawley rats. The following applies: comparable to that induced by NMDA; resistant to naloxone.

Take “Dyn A(1-13) (YGGFLRRIRPKLK; Dynorphin A(1-13); UniProt P01213 207-219, looked up, fragment)”: the “potency in writhing assay” value in data set [1] was “very potent”.
For the substance “dynorphin A (YGGFLRRIRPKLKWDNQ; Dynorphin A(1-17); UniProt P01213 207-223, looked up) [[Leu]-enkephalin-containing opioid peptide encoded by the preprodynorphin gene]”, the analgesic effect entry in data set [2] is listed as “moderate analgesic effect”. Besides, the analgesic efficacy result in data set [3] was “ineffective”.
As to dynorphin A (2-17), the intracellular calcium concentration result in data set [4] is given as “increase in intracellular calcium concentration”.
